Results taken from patent US20080305559A1, “Non-Competitive Immunoassays to Detect Small Molecules” (priority 2005, published 2008).
Where “and” joins values, the source holds several entries; their conditions need not be identical. Identical values can stand only once. No end group written: not given here.

Experiments:
MoAb 14D7 [1] = experiment: Phage ELISA checkerboard titration: reactivity with the IC and the uncombined antibody; type: binding; conditions: wide range of MoAb 14D7 coating densities, absence of molinate
Description: (§1) Nunc-Immuno™ Maxi-Sorp™ plates were coated with MoAb 14D7 or molinate-MoAb 14D7 immunocomplex as described previously. The wells were blocked with 5% skimmed milk PBS, and washed three times with PBST. One hundred μl/well of an overnight culture of individual amplified phage clones were dispensed into the wells. The microtiter plates where then incubated for 1 h at room temperature with gentle rocking. After washing three times with PBST, 100 μL of a 1/5000 dilution of horse radish peroxidase (HRP) labeled anti-M13 monoclonal antibody (Pharmacia, Uppsala) in PBST were added to each well. One hour later, the plates were thoroughly washed and 100 μl of peroxidase substrate (25 ml of 0.1 M citrate acetate buffer pH 5.5, 0.4 ml of 6 mg/ml DMSO solution of 3,3′,5,5′-tetramethylbenzidine, and 0.1 ml of 1% H2O2) were dispensed into each well. The enzymatic reaction was stopped after 15-20 min by the addition of 50 μl of 2 M H2SO4, and the absorbance at 450 nm (corrected at 600 nm) was read in a microtiter plate reader (Multiskan MS, Labsystems). The supernatants showing high readings in wells coated with the immunocomplex and low response in antibody coated wells were prepared as stabilized phage suspensions (see below), and use for further analysis. For checkerboard titration, 100 μl of variable concentrations of the antibody (0.3-2 μg/ml) were used for coating.

[2] = system: molinate-MoAb 14D7 immunocomplex; experiment: Noncompetitive phage ELISA (PHAIA) for molinate; type: binding; conditions: molinate as analyte, plates coated with MoAb 14D7, named phage borne peptide as tracer
From the text: In a similar way that the IC50 (the analyte concentration producing 50% inhibition) is used to denote the sensitivity of competitive methods, we refer to the concentration of analyte producing 50% saturation (SC50) in noncompetitive assays as a practical parameter to compare the sensitivity of our assays. […] For each of these clones, the assay conditions were optimized as described previously. […] These differences highlight the importance of the residues that flank the WDT consensus sequence of the selected peptides. This can be seen in the case of the S1 and S4 peptide sequences, which only differ in two amino acids and yield assays with SC50 of 5 and 32 ng/ml, respectively.
as §1
Fifty μl per well of serial dilutions of molinate standard in PBST were dispensed into microtiter plates coated with MoAb 14D7, followed by the addition of 50 μl/well of the adequate dilution of the stabilized phage suspension. The antibody concentration used for coating and the proper dilution of the phage suspension had been previously optimized by checkerboard experiments. After an hour incubation period at room temperature, the plates were washed and developed as previously described. Absorbance values were fitted to a four-parameter logistic equation using the Genesis Lite 3.03 (Life Sciences (UK) Ltd.) package software. The lower detection limit (DL) of the assays was estimated as the analyte concentration corresponding to the absorbance equal to that of the zero standard plus three times its standard deviation).

[3] = system: anti-PBA polyclonal antibodies; experiment: Cross-reactivity of the noncompetitive phage ELISA for PBA; type: binding, rabbit; conditions: for CR (%): % cross-reactivity=100×[SC50(PBA)/SC50(cross-reacting compound)]; for IC50: noncompetitive phage ELISA for PBA
Description: The specificity of the noncompetitive assay set up with the phage borne peptide was characterized by determining its cross-reactivity with structurally related pesticides. PBA concentrations in the 0-50 ng/ml range were used in the noncompetitive ELISAs. Data were normalized, and the molar compound concentration corresponding to the midpoint of the curve, (which corresponds to the concentration of analyte producing 50% saturation of the signal (SC50), was used to express the cross-reactivity of the assay according to the equation:
% cross−reactivity=100×[SC50(PBA)/SC50(cross−reacting compound)]

MoAb 14D7 [4] = conditions: molinate; Cardozo et al. 2005; cited from earlier work
MoAb 14D7 [5] = conditions: molinate, Rufo et al. 2004; cited from earlier work
[6] = system: atrazine-MoAb K4E7 immunocomplex; experiment: Noncompetitive phage assay (PHAIA) for atrazine; type: binding; conditions: atrazine as analyte; MoAb K4E7 immobilized; phage borne peptides as tracers
Description: In this case, we used the MoAb K4E7 specific for atrazine. The conventional chemical hapten assay developed with this MoAb (see, e.g., Giersch, J Ag. Food Chem. 41: 1006-1011 (1993)) allows one to reach an IC50 of 0.5 ng/ml. We used the atrazine-MoAb K4E7 immunocomplex to select phage borne peptides that could be used to develop a noncompetitive assay. The protocols used for panning and assay set up were identical to those used for the molinate-MoAb 14D7 system described in Example 1 above. […] A short consensus sequence was identified: WFD. The consensus sequence can occur at position two or five of the random sequence. […]
Fifty μl per well of serial dilutions of molinate standard in PBST were dispensed into microtiter plates coated with MoAb 14D7, followed by the addition of 50 μl/well of the adequate dilution of the stabilized phage suspension. […] Absorbance values were fitted to a four-parameter logistic equation using the Genesis Lite 3.03 (Life Sciences (UK) Ltd.) package software. The lower detection limit (DL) of the assays was estimated as the analyte concentration corresponding to the absorbance equal to that of the zero standard plus three times its standard deviation).

MoAb K4E7 [7] = conditions: atrazine, Giersch 1993; cited from earlier work
MoAb K4E7 [8] = conditions: atrazine; Cardozo et al. 2005; cited from earlier work

Molecule	SC50 (concentration of analyte producing 50% saturation) [2]	CR (%) [3] [%]	IC50 [3] [µg/mL]	further results
C S L W D T T G W C (CSLWDTTGWC; phage-displayed) [mA, phage clone from the mutagenesis library]	8.5 ± 0.5 ng/mL			residual reactivity with the free (uncombined) antibody (MoAb 14D7 [1]): little reactivity with the free antibody
CC1(C)C(C=C(Cl)Cl)C1C(=O)OCc1cccc(Oc2ccccc2)c1 (stereo not drawn) [Permethrin]		0	>0.1	
C S I W D T T G W C (CSIWDTTGWC; phage-displayed) [mI12, phage clone from the mutagenesis library]	8.1 ± 0.6 ng/mL			
C N L W D T T G W C (CNLWDTTGWC; phage-displayed) [mF, phage clone from the mutagenesis library]	11 ± 0.5 ng/mL			
C N R W D T T G W C (CNRWDTTGWC; not fully specified (bridges); cysteine pairing not given here; also: phage-displayed on pVIII) [8M2]	6.1 ± 0.3 ng/mL and 6.0 ± 0.3 ng/mL			
C N I W D T S G W C (CNIWDTSGWC; phage-displayed) [mH, phage clone from the mutagenesis library]	27 ± 2.0 ng/mL			
O=C(O)c1ccc(O)cc1 [4-Hydroxybenzoic acid]		0	>0.1	
CCSC(=O)N1CCCCCC1 [molinate]				IC50 of phage competitive assay (MoAb 14D7 [4]): 0.045 µg/mL; IC50 of competitive assay set up with heterologous chemical haptens (MoAb 14D7 [5]): 69 ng/ml and 69.2±1.4 ng/ml
CC(C)C(C(=O)OC(C#N)c1cccc(Oc2ccccc2)c1)c1ccc(Cl)cc1 (stereo not drawn) [Esfenvalerate]		0	>0.1	
O=C(O)CNC(=O)c1cccc(Oc2ccccc2)c1 [PBA-glycine conjugate]		0	>0.1	
C S Y W D T T G W C (CSYWDTTGWC; phage-displayed) [mG, phage clone from the mutagenesis library]	16 ± 0.7 ng/mL			
C S V W D T S G W C (CSVWDTSGWC; not fully specified (bridges); cysteine pairing not given here; also: phage-displayed) [10M2]	32 ± 5 ng/mL and 32 ± 4.9 ng/mL			SC50 (concentration of analyte producing 50% saturation) ([2]; listed as S4): 32 ng/mL
C S T W D T T G W C (CSTWDTTGWC; also: phage-displayed on pVIII, cyclic, bridge not given here) [1M]	5.0 ± 0.4 ng/mL			SC50 (concentration of analyte producing 50% saturation) ([2]; listed as S1): 5 ng/mL
CTPVRWFDMC (phage-displayed) [13A]				SC50 [6]: 0.0511 ± 0.002 ng/mL
CCNc1nc(Cl)nc(NC(C)C)n1 [atrazine]				SC50 [6]: 0.2 to 0.8 ng/mL; IC50 of conventional chemical hapten assay (MoAb K4E7 [7]): 0.0005 µg/mL; IC50 of competitive assay set up with the same antibody (MoAb K4E7 [8]): 0.00064 ± 6e-05 µg/mL
CC1(C)C(C=C(Cl)Cl)C1C(=O)OC(C#N)c1cccc(Oc2ccccc2)c1 (stereo not drawn) [Cypermethrin]		0	>0.1	
